Assay results from PubChem BioAssay (NCI).
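Test compounds were applied to cells in 96-well plates for 48 hours at 5 doses. At the TGI there is no net growth.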

system: DMS 114 small cell lung; experiment: growth of human tumour cells (NCI), 48 h

Compound	TGI
O=c1cc(-c2ccc(Oc3ccccc3)cc2)[nH]c2cc3c(cc12)OCO3	> 100 µM
CCOC(=O)CC(C)C1(C(=O)OCC)CCCCC1=O (stereo not given)	39.4 µM
CC(=O)O[C@H]1C(=O)[C@@]2(C)C(C(OC(=O)c3ccccc3)[C@]3(O)CC(OC(=O)C(O)C(NC(=O)c4ccc(C(F)(F)F)cc4)c4ccccc4)C(C)=C1C3(C)C)[C@]1(OC(C)=O)CO[C@@H]1C[C@@H]2O (stereo not given in full)	0.122 µM
COC(=O)CC1N=C(NC#N)N(CCc2c[nH]c3ccccc23)C1=O (stereo not given)	> 100 µM
Nc1nc([O-])c2c(n1)[n+](C1OC(CO)C(O)C1O)cn2CCO (stereo not given)	> 100 µM
O=Cc1ccccc1COC(=O)c1cc(C(=O)OCc2ccccc2C=O)c(C(=O)OCc2ccccc2C=O)cc1C(=O)OCc1ccccc1C=O	> 100 µM
Cc1cc(N(CCC#N)CCC#N)ccc1/C=C(\NC(=O)/C=C/c1ccccc1)C(N)=O	> 100 µM
CCCCCCCCCCCC(=O)OCC(C[As](=O)(O)O)OC(=O)CCCCCCCCCCC (stereo not given)	3.13 µM
C[Si](C)(C)OC1CC(=O)OC1n1cc(F)c(=O)[nH]c1=O (stereo not given)	> 100 µM

system: SNB-78 CNS; experiment: growth of human tumour cells (NCI), 48 h

Compound	TGI
CCOC(=O)CC(C)C1(C(=O)OCC)CCCCC1=O (stereo not given)	> 100 µM
CC(=O)O[C@H]1C(=O)[C@@]2(C)C(C(OC(=O)c3ccccc3)[C@]3(O)CC(OC(=O)C(O)C(NC(=O)c4ccc(C(F)(F)F)cc4)c4ccccc4)C(C)=C1C3(C)C)[C@]1(OC(C)=O)CO[C@@H]1C[C@@H]2O (stereo not given in full)	10.1 µM
COC(=O)CC1N=C(NC#N)N(CCc2c[nH]c3ccccc23)C1=O (stereo not given)	> 100 µM
Nc1nc([O-])c2c(n1)[n+](C1OC(CO)C(O)C1O)cn2CCO (stereo not given)	> 100 µM
O=Cc1ccccc1COC(=O)c1cc(C(=O)OCc2ccccc2C=O)c(C(=O)OCc2ccccc2C=O)cc1C(=O)OCc1ccccc1C=O	> 100 µM
O=C1c2ccsc2C(=O)c2sc(CO)cc21	0.978 µM
CN(C)CC1CCCC(CN(C)C)C1OC(=O)c1ccccc1 (stereo not given)	> 100 µM
Cc1cc(N(CCC#N)CCC#N)ccc1/C=C(\NC(=O)/C=C/c1ccccc1)C(N)=O	> 100 µM
CCCCCCCCCCCC(=O)OCC(C[As](=O)(O)O)OC(=O)CCCCCCCCCCC (stereo not given)	7.69 µM
CN=C(SC)N(C)c1nc(=[N+](C)C)ss1	> 100 µM

system: DLD-1 colon; experiment: growth of human tumour cells (NCI), 48 h

Compound	TGI
O=c1cc(-c2ccc(Oc3ccccc3)cc2)[nH]c2cc3c(cc12)OCO3	> 100 µM
CCOC(=O)CC(C)C1(C(=O)OCC)CCCCC1=O (stereo not given)	> 100 µM
CC(=O)O[C@H]1C(=O)[C@@]2(C)C(C(OC(=O)c3ccccc3)[C@]3(O)CC(OC(=O)C(O)C(NC(=O)c4ccc(C(F)(F)F)cc4)c4ccccc4)C(C)=C1C3(C)C)[C@]1(OC(C)=O)CO[C@@H]1C[C@@H]2O (stereo not given in full)	28.9 µM
COC(=O)CC1N=C(NC#N)N(CCc2c[nH]c3ccccc23)C1=O (stereo not given)	> 100 µM
Cn1c(O)c(C(=O)NC2CCCCC2)c(=O)n(C)c1=S	24 µM
Nc1nc([O-])c2c(n1)[n+](C1OC(CO)C(O)C1O)cn2CCO (stereo not given)	> 100 µM
O=Cc1ccccc1COC(=O)c1cc(C(=O)OCc2ccccc2C=O)c(C(=O)OCc2ccccc2C=O)cc1C(=O)OCc1ccccc1C=O	> 100 µM
O=C1c2ccsc2C(=O)c2sc(CO)cc21	0.326 µM
CN(C)CC1CCCC(CN(C)C)C1OC(=O)c1ccccc1 (stereo not given)	> 100 µM
Cc1cc(N(CCC#N)CCC#N)ccc1/C=C(\NC(=O)/C=C/c1ccccc1)C(N)=O	> 100 µM
CCCCCCCCCCCC(=O)OCC(C[As](=O)(O)O)OC(=O)CCCCCCCCCCC (stereo not given)	31.3 µM
C[Si](C)(C)OC1CC(=O)OC1n1cc(F)c(=O)[nH]c1=O (stereo not given)	> 100 µM

system: DMS 273 small cell lung; experiment: growth of human tumour cells (NCI), 48 h

Compound	TGI
O=c1cc(-c2ccc(Oc3ccccc3)cc2)[nH]c2cc3c(cc12)OCO3	> 100 µM
CCOC(=O)CC(C)C1(C(=O)OCC)CCCCC1=O (stereo not given)	32.5 µM
CC(=O)O[C@H]1C(=O)[C@@]2(C)C(C(OC(=O)c3ccccc3)[C@]3(O)CC(OC(=O)C(O)C(NC(=O)c4ccc(C(F)(F)F)cc4)c4ccccc4)C(C)=C1C3(C)C)[C@]1(OC(C)=O)CO[C@@H]1C[C@@H]2O (stereo not given in full)	0.53 µM
COC(=O)CC1N=C(NC#N)N(CCc2c[nH]c3ccccc23)C1=O (stereo not given)	> 100 µM
Nc1nc([O-])c2c(n1)[n+](C1OC(CO)C(O)C1O)cn2CCO (stereo not given)	> 100 µM
O=Cc1ccccc1COC(=O)c1cc(C(=O)OCc2ccccc2C=O)c(C(=O)OCc2ccccc2C=O)cc1C(=O)OCc1ccccc1C=O	> 100 µM
O=C1c2ccsc2C(=O)c2sc(CO)cc21	0.115 µM
CN(C)CC1CCCC(CN(C)C)C1OC(=O)c1ccccc1 (stereo not given)	> 100 µM
Cc1cc(N(CCC#N)CCC#N)ccc1/C=C(\NC(=O)/C=C/c1ccccc1)C(N)=O	> 100 µM
CCCCCCCCCCCC(=O)OCC(C[As](=O)(O)O)OC(=O)CCCCCCCCCCC (stereo not given)	10.1 µM
CN=C(SC)N(C)c1nc(=[N+](C)C)ss1	> 100 µM
C[Si](C)(C)OC1CC(=O)OC1n1cc(F)c(=O)[nH]c1=O (stereo not given)	> 100 µM

system: RXF-631 renal; experiment: growth of human tumour cells (NCI), 48 h

Compound	TGI
CCOC(=O)CC(C)C1(C(=O)OCC)CCCCC1=O (stereo not given)	> 100 µM
Cn1c(O)c(C(=O)NC2CCCCC2)c(=O)n(C)c1=S	20.1 µM
